Reference: article PMC3954757, “Novel Potent Imidazo[1,2-a]pyridine-N-Glycinyl-Hydrazone Inhibitors of TNF-α Production: In Vitro and In Vivo Studies” (PLoS ONE, 2014)
pIC50: −log10 of the molar value. “And” between values parts separate entries of the source, which are not always exact repeats. Identical values can stand only once.

Key:
[1] = Cell viability by MTT assay; type: cell-based, mouse; details: mouse, peritoneal macrophages; 10 µM; MTT; compared to vehicle (DMSO)
Experimental: (§1) The peritoneal macrophage were obtained and plated as described above. The cells were incubated with the vehicle or compounds for 20 hours when was added 200 µL of RPMI medium containing 0.5 mg/mL MTT […] (3-(4,5-dimethylthiazol-2-yl)-2,5-diphenyltetrazolium bromide) followed by 4 hour of incubation at 37°C in a 5% CO2 atmosphere. After incubation supernatants were discarded and 200 µL DMSO (dimethylsulfoxide) were added to solubilize the MTT-formazan crystals. The optical density was measured in a microplate reader at 490 nm. The control groups consisted of cells with medium plus vehicle used to dissolve the substances and was considered as 100% of viable cells. Results are expressed as percentage of viable cells when compared with control groups.

TNF-α production [2] = assay: LPS-induced TNF-α production in culture of mice peritoneal macrophage (ELISA); details: Mus musculus; for inhibition at 10 µM: 24 h, read-out: TNF-α % inhibition at 10 µM; for pIC50: read-out: TNF-α IC50
Experimental: BALBc mice received thyoglicollate 3% (1 mL/mice; i.p.) and 3 days later the peritoneal cavities were washed with RPMI 1640 culture medium (Sigma, USA, supplemented with 10% fetal bovine serum). The peritoneal macrophages were plated onto 96-wells plate (30.000 cells/well) for 1 hour at 37°C in a humidified 5% CO2 atmosphere. Then, macrophages were incubated with the vehicle or compounds and 1 hour later stimulated with LPS(100 ng/mL) for 24 hours when the supernatants were collected to evaluate TNF-α production by ELISA kit (B&D Bioscience, USA).

[3] = tested on: murine peritoneal macrophages; assay: Cell viability by MTT assay; type: cell-based, mouse; details: for pIC50: Mus musculus, Peritoneal macrophage, MTT cytotoxicity, concentration range 0.1–100 µM; for Selectivity Index (SI): SI = cytotoxicity IC50/anti-TNF-α IC50
Experimental: as §1

p38α MAPK = p38α MAPK (Homo sapiens, UniProt Q16539); assay: p38α MAPK activity, nonradioactive immunosorbent assay; type: biochemical
Experimental: Because the novel N-acylhydrazone derivatives 1 were designed based on the p38α MAPK inhibitor BIRB-796 (3), some of them were evaluated for their in vitro capacity to inhibit p38α MAPK activity at a concentration of 10 µM.
*This assay was performed as described by Goettert MR, Graeser, Laufer SA (2010) Optimization of a nonradioactive immunosorbent assay for p38 alpha mitogen-activated protein kinase activity. Anal Biochem 406: 233–234.

IFN-γ production = assay: Subcutaneous air pouch (SAP) model, IFN-γ in exudate; type: in vivo, mice; details: oral
Experimental: (§2) We also measured the levels of the cytokines interferon-γ (IFN- γ) and interleukin 1β (IL-1β).
(§3) Figure 5 Effect of compound 1i on IL-1β and IFN-γ production. Twenty-four hours prior to carrageenan (1%) injection into the subcutaneous air pouch (SAP), animals were pretreated by oral administration with different doses of a solution of 1i. The results are presented as the mean ± S. D. (n = 6–10) of each cytokine (ng/mL). Statistical significance was calculated by ANOVA followed by Bonferroni’s test. * indicates p<0.005 for the comparison of 1i -treated mice with the vehicle-treated group; # indicates p<0.005 for the comparison of vehicle-treated mice with the PBS-treated group.
(§4) The experimental protocol was similar to that described by Romano and colleagues (1997) with several modifications described by Raymundo and colleagues (2011). The animals received a dorsal subcutaneous injection of sterile air (10 mL) on three alternate days to induce the SAP. On the sixth day, animals received a subcutaneous injection of sterile carrageenan suspension (1%; 1 mL). Mice were pre-treated with vehicle (Polysorbate 80), 1i (3, 10, 30 and 100 µmol/kg) or dexamethasone (1.5 µmol/kg, i.p.) 1 h before carrageenan injection into the SAP. The control group received an injection of sterile PBS (1 mL) into the SAP. Animals were sacrificed 24 h after carrageenan injection. The cavity was washed with 1 mL of sterile PBS. Exudates were collected, centrifuged at 11,000 rpm for 10 min at 4°C and TNF-α accumulated was quantified. The cytokines quantification was done by enzyme-linked immunosorbent assay (ELISA) according to the manufacturer’s instructions (B&D, USA). The results are expressed as pg/mL of each cytokine. Animals were sacrificed after an exposition to a saturated carbon dioxide atmosphere in an appropriate gas chamber.

TNF-α production [4] = assay: Subcutaneous air pouch (SAP) model, TNF-α in exudate; type: in vivo, mice; details: 1i oral pre-treatment, carrageenan 1% SAP
From the text: Because compound 1i provided a better balance between the IC50 value for TNF-α production and cellular toxicity in vitro, we evaluated its effects in the subcutaneous air pouch (SAP) model, an in vivo model of inflammation and TNF production, [28].
as §3, with “Figure 4” for “Figure 5”, “on TNF-α” for “on IL-1β and IFN-γ”, “of TNF-α (pg/mL).” for “of each cytokine (ng/mL).”
as §4

IL-1β production = assay: Subcutaneous air pouch (SAP) model, IL-1β in exudate; type: in vivo, mice; details: oral
Experimental: as §2, §3, §4

p38α MAPK, sequence (Q16539 whole entry): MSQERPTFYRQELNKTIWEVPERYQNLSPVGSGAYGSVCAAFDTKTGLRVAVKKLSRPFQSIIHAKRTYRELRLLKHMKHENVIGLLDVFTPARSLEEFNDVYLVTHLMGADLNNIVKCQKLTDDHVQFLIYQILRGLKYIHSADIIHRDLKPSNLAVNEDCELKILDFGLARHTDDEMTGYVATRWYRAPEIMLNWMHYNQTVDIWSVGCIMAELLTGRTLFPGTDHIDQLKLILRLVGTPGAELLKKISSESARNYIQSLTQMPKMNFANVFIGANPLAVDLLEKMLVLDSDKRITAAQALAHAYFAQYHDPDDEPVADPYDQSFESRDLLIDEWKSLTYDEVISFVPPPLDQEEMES

melting point | pIC50 (TNF-α production [2]) | inhibition at 10 µM (p38α MAPK) [%] | Compound | viability at 20 h, 10 µM [1] [%] | inhibition at 10 µM (TNF-α production [2]) [%] | pIC50 [3] | Selectivity Index (SI) [3] | also measured
– | – | – | CC(C)(C)c1nc2ccccn2c1NCC(=O)N/N=C/c1ccc(OCCN2CCOCC2)cc1 [Compound 1h, (E)-2-(2-tert-butylimidazo[1,2-a]pyridin-3-ylamino)-N’-(4-(2-morpholinoethoxy)benzylidene)acetohydrazide] | 100 | 2.8 | – | – | –
273 to 275 °C | 5.44 | – | O=C(CNc1c(-c2ccccc2)nc2ccccn12)N/N=C/c1ccc(O)cc1 [Compound 1d, (E)-N’-(4-hydroxybenzylidene)-2-(2-phenylimidazo[1,2-a]pyridin-3-ylamino) acetohydrazide] | 100 | 56.7 | – | – | –
– | – | – | C[S+]([O-])c1ccc(-c2nc(-c3ccncc3)c(-c3ccc(F)cc3)[nH]2)cc1 (stereo not drawn) [SB-203580, reference compound] | 44.3 | 90 | – | – | –
208 to 210 °C | 6.00 | 17.2 | O=C(CNc1c(-c2ccccc2)nc2ccccn12)N/N=C/c1cccc2ccccc12 [Compound 1k, (E)-N’-(naphthalen-1-ylmethylene)-2-(2-phenylimidazo[1,2-a]pyridin-3-ylami-no)acetohydrazide] | 83.2 | 75.8 | 4.63 | 23.7 | –
230 to 232 °C | – | – | CC(C)(C)c1nc2ccccn2c1NCC(=O)N/N=C/c1ccccc1 [Compound 1g, (E)-N’-benzylidene-2-(2-tert-butylimidazo[1,2-a]pyridin-3-ylamino)acetohydrazide] | 100 | 5.6 | – | – | –
105 to 108 °C | 6.47 | 6.5 | O=C(CNc1c(-c2ccccc2)nc2ccccn12)N/N=C/c1ccc(OCCN2CCOCC2)c2ccccc12 [Compound 1b, (E)-N’-((4-(2-morpholinoethoxy)naphthalen-1-yl)methylene)-2-(2-phenylimidazo [1,2-a]pyridin-3-ylamino)acetohydrazide] | 78.4 | 77.3 | 4.83 | 43.2 | –
138 to 141 °C | – | – | O=C(CNc1c(-c2ccccc2)nc2ccccn12)N/N=C/c1ccccc1 [Compound 1f, (E)-N’-benzylidene-2-(2-phenylimidazo[1,2-a]pyridin-3-ylamino)acetohydrazide] | 100 | 29.3 | – | – | –
232 to 234 °C | 6.68 | – | CC(C)(C)c1nc2ccccn2c1NCC(=O)N/N=C/c1ccc(Cl)cc1 [Compound 1i, (E)-2-(2-tert-butylimidazo[1,2-a]pyridin-3-ylamino)-N’-(4-chlorobenzylidene) acetohydrazide] | 73.3 | 78 | 4.66 | 103.3 | inhibition of IFN-γ (IFN-γ production; 3 µmol/kg): 83.7%; inhibition of IFN-γ (IFN-γ production; 10 µmol/kg): 83%; inhibition of IFN-γ (IFN-γ production; 30 µmol/kg): 82.8%; inhibition of IFN-γ (IFN-γ production; 100 µmol/kg): 82.4%; reduction of TNF-α production (TNF-α production [4]; 3 µmol/kg): 96.8%; reduction of TNF-α production (TNF-α production [4]; 10 µmol/kg): 90.6%; reduction of TNF-α production (TNF-α production [4]; 30 µmol/kg): 97.3%; reduction of TNF-α production (TNF-α production [4]; 100 µmol/kg): 95.31%; reduction in IL-1β (IL-1β production; 3 µmol/kg): 81%; reduction in IL-1β (IL-1β production; 10 µmol/kg): 69.5%; reduction in IL-1β (IL-1β production; 30 µmol/kg): 74.7%; reduction in IL-1β (IL-1β production; 100 µmol/kg): 65.7%
122 to 124 °C and 120 to 122 °C | 5.52 | – | O=C(CNc1c(-c2ccccc2)nc2ccccn12)N/N=C/c1ccc(Cl)cc1 [Compound 1e, (E)-N’-(4-chlorobenzylidene)-2-(2-phenylimidazo[1,2-a]pyridin-3-ylamino) acetohydrazide] | 100 | 53.8 | – | – | –
169 to 171 °C and 167 to 169 °C | – | 22.6 | O=C(CNc1c(-c2ccccc2)nc2ccccn12)N/N=C/c1ccc(OCCN2CCOCC2)cc1 [Compound 1c, (E)-N’-(4-(2-morpholinoethoxy)benzylidene)-2-(2-phenylimidazo[1,2-a]pyridin-3-ylamino)acetohydrazide] | 100 | 18.3 | – | – | –
> 300 °C | 6.51 | – | O=C(CNc1c(-c2ccccc2)nc2ccccn12)N/N=C/c1ccc(O)c2ccccc12 [Compound 1j, (E)-N’-((4-hydroxynaphthalen-1-yl)methylene)-2-(2-phenylimidazo[1,2-a]pyridin-3-ylamino)acetohydrazide] | 40 | 90.8 | 4.98 | 33.5 | –
135 to 137 °C | 6.21 | 11.8 | CC(C)(C)c1nc2ccccn2c1NCC(=O)N/N=C/c1ccc(OCCN2CCOCC2)c2ccccc12 [Compound 1a, (E)-2-(2-tert-butylimidazo[1,2-a]pyridin-3-ylamino)-N’-((4-(2-morpholinoethoxy)naphthalen-1-yl)methylene)acetohydrazide] | 20.1 | 95.3 | 5.16 | 11.1 | –
– | 5.44 | – | CC(C)(C)c1cc(NCC(=O)N/N=C/c2ccc(OCCN3CCOCC3)c3ccccc23)n(-c2ccccc2)n1 [LASSBio-1504 (2), reference compound] | 61.5 | 96.9 | 4.99 | 2.8 | –
